Some test systems named below: MDA-N; HCT-15; UACC-257; TK-10; RXF 393; NCI-H226; UACC-62; BT-549; SK-MEL-28; HCT-116; U-251; KM12; SK-MEL-2; OVCAR-3; DU-145; COLO 205; HOP-92; EKVX; LOX IMVI; SF-539.
Holding throughout (assay): NCI anticancer screen, dose series, 48 h

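Tested at 5 concentrations; 48 h exposure; 96-well plates; endpoints linearly interpolated, else capped at highest concentration. GI50 = concentration required for 50% inhibition of growth.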 Calls of active or inactive are those of the source. Rule as the data show it: active = GI50 up to about 1.1 µM and inactive = higher.

Drawing on ChEMBL document CHEMBL1201862, “PubChem BioAssay data set” (2004), this text covers GI50 for one molecule.

`c1cc2c(cc1C(N1CCNCC1)N1CCNCC1)OCO2`: the GI50 in the assay on MDA-N was > 100 µM (inactive); in the assay on HCT-15, > 100 µM; in the assay on UACC-257, > 100 µM (inactive); in the assay on TK-10, > 100 µM (inactive); in the assay on RXF 393 it was > 100 µM (inactive); in the assay on NCI-H226, > 100 µM (inactive). Moreover, the GI50 with UACC-62, in the assay on BT-549, in the assay on SK-MEL-28, in the assay with HCT-116, with U-251 and with KM12 was > 100 µM (inactive) throughout. Moreover, the GI50 in the assay on SK-MEL-2, with OVCAR-3, in the assay on DU-145, with COLO 205, with HOP-92 and in the assay on EKVX was > 100 µM (inactive) in each case. The GI50 in the assay with LOX IMVI and in the assay with SF-539 was > 100 µM (inactive) throughout.
